From BindingDB's records for patent US8962648 (Oncotherapy Science, 2015)

target: T1, Lymphokine-activated killer T-cell-originated protein kinase (Homo sapiens, UniProt Q96KB5); assay: Kinase Assay; settings: pH 7.4; 25 °C
T1 sequence (Q96KB5 whole entry): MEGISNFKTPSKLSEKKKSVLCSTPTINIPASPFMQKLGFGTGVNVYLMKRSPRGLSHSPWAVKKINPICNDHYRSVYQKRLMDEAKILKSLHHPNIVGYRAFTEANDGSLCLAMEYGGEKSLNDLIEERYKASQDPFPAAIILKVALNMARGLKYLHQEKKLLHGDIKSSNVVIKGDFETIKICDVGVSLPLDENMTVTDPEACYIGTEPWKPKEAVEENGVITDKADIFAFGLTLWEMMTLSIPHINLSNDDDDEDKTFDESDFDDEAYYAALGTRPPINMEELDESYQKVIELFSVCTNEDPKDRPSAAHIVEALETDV
Procedure: PBK activity was determined in the presence or absence of compounds using fluorescein isothiocyanate-labeled (FITC-labeled) histone H3 peptide as a substrate. […] The serially diluted compounds, 0.8 ng/micro-L PBK (Carna Biosciences) and 100 nM FITC-labeled histone H3 peptide were reacted in a reaction buffer (20 mM HEPES, 0.01% Tween-20, 0.3 mM MgCl2, 2 mM dithiothreitol, 50 micro-M ATP, pH 7.4) at room temperature for 1 hour. The reaction was stopped by the addition of three fold assay volume of progressive binding solution. Following 0.5 hour incubation at room temperature.

Compound | IC50 [nM]
CC(=O)Oc1ccc2[nH]c(=O)c3sccc3c2c1-c1ccc(C(C)N)cc1 (stereo unspecified) [US8962648, 1099] | 33
CC(N)Cc1ccc(-c2c(O)cc(Cl)c3[nH]c(=O)c4sccc4c23)cc1 (stereo unspecified) [US8962648, 1106] | 41
NCC1(c2ccc(-c3c(O)cc(Cl)c4[nH]c(=O)c5sccc5c34)cc2)CC1 [US8962648, 1116] | 22
CC[C@H](N)c1ccc(-c2c(O)ccc3[nH]c(=O)c4sccc4c23)cc1 [US8962648, 1120] | 0.88
CC[C@H](N)c1ccc(-c2c(OC)ccc3[nH]c(=O)c4sccc4c23)cc1 [US8962648, 1121] | 2.9
C[C@@H](N)c1ccc(-c2c(O)cc(Br)c3[nH]c(=O)c4sccc4c23)cc1 [US8962648, 1123] | 33
CCN[C@H](CC)c1ccc(-c2c(O)ccc3[nH]c(=O)c4sccc4c23)cc1 [US8962648, 1127] | 1.4
CC[C@@H](c1ccc(-c2c(O)ccc3[nH]c(=O)c4sccc4c23)cc1)N(C)C [US8962648, 1128] | 2.2
CC[C@@H](N)c1ccc(-c2c(O)ccc3[nH]c(=O)c4sccc4c23)cc1 [US8962648, 1131] | 1.3
CN[C@H](C)c1ccc(-c2c(O)cc(Br)c3[nH]c(=O)c4sccc4c23)cc1 [US8962648, 1135] | 30
O=c1[nH]c2ccc(O)c(-c3ccc(S(=O)(=O)NCCCl)cc3)c2c2c1CCC2 [US8962648, 1145] | 13
CC[C@H](NC)c1ccc(-c2c(O)ccc3[nH]c(=O)c4sccc4c23)cc1 [US8962648, 1148] | 1.3
CC[C@@H](N)c1ccc(-c2c(O)cc(Br)c3[nH]c(=O)c4sccc4c23)cc1 [US8962648, 1150] | 47
CC[C@H](c1ccc(-c2c(O)ccc3[nH]c(=O)c4sccc4c23)cc1)N(C)C [US8962648, 1151] | 2.5
CC[C@H](NC)c1ccc(-c2c(O)cc(Cl)c3[nH]c(=O)c4sccc4c23)cc1 [US8962648, 1154] | 9.4
CC[C@@H](N)c1ccc(-c2c(O)cc(C)c3[nH]c(=O)c4sccc4c23)cc1 [US8962648, 1157] | 18
CC[C@@H](N)c1ccc(-c2c(O)cc(Cl)c3[nH]c(=O)c4sccc4c23)cc1 [US8962648, 1159] | 26
CCC(C#N)c1ccc(-c2c(O)ccc3[nH]c(=O)c4sccc4c23)cc1 (stereo unspecified) [US8962648, 1162] | 13
C[C@H](CN)c1ccc(-c2c(O)ccc3[nH]c(=O)c4sccc4c23)cc1 [US8962648, 1163] | 1.3
CNCCc1ccc(-c2c(O)cc(Cl)c3[nH]c(=O)c4sccc4c23)cc1 [US8962648, 1165] | 58
C[C@H](CN(C)C)c1ccc(-c2c(O)ccc3[nH]c(=O)c4sccc4c23)cc1 [US8962648, 1172] | 4

Compound | IC50 [nM]
CC(CN)c1ccc(-c2c(O)ccc3[nH]c(=O)c4sccc4c23)cc1F (stereo unspecified) [US8962648, 1174] | 1.5
CNC[C@H](C)c1ccc(-c2c(OC)ccc3[nH]c(=O)c4sccc4c23)cc1 [US8962648, 1189] | 3
CNC[C@@H](C)c1ccc(-c2c(O)ccc3[nH]c(=O)c4sccc4c23)cc1 [US8962648, 1197] | 2.8
CCC(CC)(CN)c1ccc(-c2c(O)ccc3[nH]c(=O)c4sccc4c23)cc1 [US8962648, 1209] | 1.8
CNC[C@@H](C)c1ccc(-c2c(O)cc(C)c3[nH]c(=O)c4sccc4c23)cc1 [US8962648, 1215] | 60
COc1cc(Cl)c2[nH]c(=O)c3sccc3c2c1-c1ccc(CCN)c(F)c1 [US8962648, 1218] | 87
NCCc1cc(Br)c(-c2c(O)ccc3[nH]c(=O)c4sccc4c23)cc1O [US8962648, 1224] | 6.4
CNCCc1ccc(-c2c(O)cc(Br)c3[nH]c(=O)c4sccc4c23)cc1F [US8962648, 1245] | 45
CC(C)(CN)c1ccc(-c2c(O)cc(Br)c3[nH]c(=O)c4sccc4c23)cc1 [US8962648, 1247] | 72
COc1cc(C)c2[nH]c(=O)c3sccc3c2c1-c1ccc(C2(CN)CC2)cc1 [US8962648, 1251] | 55
Cc1cc(O)c(-c2ccc(C3(CN)CC3)cc2)c2c1[nH]c(=O)c1sccc12 [US8962648, 1254] | 9.6
CNCCc1ccc(-c2c(O)cc(C)c3[nH]c(=O)c4sccc4c23)cc1F [US8962648, 1258] | 25
CC(C)(CN)c1ccc(-c2c(O)cc(Cl)c3[nH]c(=O)c4sccc4c23)cc1 [US8962648, 1260] | 75
CN[C@H](C)c1ccc(-c2c(O)cc(C)c3[nH]c(=O)c4sccc4c23)cc1 [US8962648, 1262] | 12
COc1cc(C)c2[nH]c(=O)c3sccc3c2c1-c1ccc(CCN)c(Cl)c1 [US8962648, 1263] | 33
Cc1cc(O)c(-c2ccc(CCN)c(Cl)c2)c2c1[nH]c(=O)c1sccc12 [US8962648, 1264] | 3
CN[C@H](C)c1ccc(-c2c(OC)cc(C)c3[nH]c(=O)c4sccc4c23)cc1 [US8962648, 1265] | 67
NCCc1ccc(-c2c(O)cc(Cl)c3[nH]c(=O)c4sccc4c23)cc1Cl [US8962648, 1268] | 3.9
CC(C)(CN)c1ccc(-c2c(O)ccc3[nH]c(=O)c4sccc4c23)cc1F [US8962648, 1271] | 1
CCC(CN)c1ccc(-c2c(OC)cc(C)c3[nH]c(=O)c4sccc4c23)cc1 (stereo unspecified) [US8962648, 1277] | 63
Cc1cc(O)c(-c2ccc(C(C)(C)CN)c(F)c2)c2c1[nH]c(=O)c1sccc12 [US8962648, 1278] | 22

Compound | IC50 [nM]
CC(CN)c1ccc(-c2c(O)ccc3[nH]c(=O)c4sccc4c23)cc1Cl (stereo unspecified) [US8962648, 1280] | 10
Cc1cc(O)c(-c2ccc(C3(CN)CCC3)cc2)c2c1[nH]c(=O)c1sccc12 [US8962648, 1290] | 10
CCC(CN)c1ccc(-c2c(O)cc(C)c3[nH]c(=O)c4sccc4c23)cc1 (stereo unspecified) [US8962648, 1291] | 15
COc1cc(C)c2[nH]c(=O)c3sccc3c2c1-c1ccc(C2(CN)CCC2)cc1 [US8962648, 1297] | 35
NCC1(c2ccc(-c3c(O)ccc4[nH]c(=O)c5sccc5c34)cc2)CCC1 [US8962648, 1300] | 1.7
CCC(CN)c1ccc(-c2c(O)ccc3[nH]c(=O)c4sccc4c23)cc1 (stereo unspecified) [US8962648, 1309] | 0.74
CCC(CN)c1ccc(-c2c(O)cc(Cl)c3[nH]c(=O)c4sccc4c23)cc1 (stereo unspecified) [US8962648, 1312] | 19
COc1cc(Cl)c2[nH]c(=O)c3sccc3c2c1-c1ccc(C2(CN)CCC2)cc1 [US8962648, 1321] | 96
Cc1cc(O)c(-c2ccc(C(C)(C)N)cc2)c2c1[nH]c(=O)c1sccc12 [US8962648, 1330] | 8.3
Cc1cc2c(s1)c(=O)[nH]c1c(C)cc(O)c(-c3ccc([C@@H](C)CN)cc3)c12 [US8962648, 1340] | 12
COc1cc(C)c2[nH]c(=O)c3sc(C)cc3c2c1-c1ccc([C@@H](C)CN)cc1 [US8962648, 1341] | 38
Cc1cc(O)c(-c2ccc([C@@H](C)CN)cc2)c2c1[nH]c(=O)c1sc(Cl)cc12 [US8962648, 1353] | 4
COc1cc(C)c2[nH]c(=O)c3sc(Cl)cc3c2c1-c1ccc([C@@H](C)CN)cc1 [US8962648, 1354] | 11
Cc1cc(O)c(-c2ccc(C3(CN(C)C)CCC3)cc2)c2c1[nH]c(=O)c1sccc12 [US8962648, 1372] | 42
COc1cc(C)c2[nH]c(=O)c3sc(F)cc3c2c1-c1ccc([C@@H](C)CN)cc1 [US8962648, 1375] | 22
Cc1cc(O)c(-c2ccc([C@@H](C)CN)cc2)c2c1[nH]c(=O)c1sc(F)cc12 [US8962648, 1383] | 3.7
COc1cc(Br)c2[nH]c(=O)c3sccc3c2c1-c1ccc(C2(CN)CC2)cc1 [US8962648, 1391] | 70
NCC1(c2ccc(-c3c(O)cc(Br)c4[nH]c(=O)c5sccc5c34)cc2)CC1 [US8962648, 1401] | 51
Cc1cc(O)c(-c2ccc(C(C)CS(N)(=O)=O)cc2)c2c1[nH]c(=O)c1sccc12 (stereo unspecified) [US8962648, 1419] | 82
